The assay deals with T1, Human GO (Homo sapiens, UniProt Q9UJM8).
T1 construct: purchased Novus Biologicals NBP1-72412
T1 sequence (Q9UJM8 1-370): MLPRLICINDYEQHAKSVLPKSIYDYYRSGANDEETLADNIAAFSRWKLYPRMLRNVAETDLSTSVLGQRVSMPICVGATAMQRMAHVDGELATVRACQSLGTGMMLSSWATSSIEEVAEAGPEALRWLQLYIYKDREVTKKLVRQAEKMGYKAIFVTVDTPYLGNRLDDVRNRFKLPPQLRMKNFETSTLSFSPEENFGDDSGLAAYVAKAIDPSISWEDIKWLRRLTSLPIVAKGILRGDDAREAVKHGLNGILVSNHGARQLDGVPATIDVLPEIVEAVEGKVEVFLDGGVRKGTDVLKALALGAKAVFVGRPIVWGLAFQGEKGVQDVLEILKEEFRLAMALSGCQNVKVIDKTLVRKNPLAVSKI
Description: GO enzymatic assay (coupled fluorescence/HRP assay, glycolate substrate). Conditions: Table 2; read-out: Range (range of IC50 values calculated from the enzymatic assays). The class given is biochemical. A digest of the protocol:
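Human GO incubated with glycolate substrate in 50 mM potassium phosphate, pH 7, with varying inhibitor concentrations. Activity read by coupled HRP fluorescence. IC50 taken from variable-slope sigmoidal dose-response fits of percent inhibition relative to DMSO control.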

As a reminder, the IC50 is the concentration needed to halve the response being measured.

Turning to `O=C(O)c1[nH]nnc1Sc1ccc(Cl)c(OC(F)(F)F)c1` [Compound 318, 4-((4-chloro-3-(trifluoromethoxy)phenyl)thio)-1H-1,2,3-triazole-5-carboxylic acid], the IC50 is less than 100 nM. With `O=C(O)c1[nH]nnc1Sc1ccc(-c2ccc(N3CCC(F)(F)CC3)cc2)cc1` [Compound 319, 4-((4′-(4,4-difluoropiperidin-1-yl)-[1,1′-biphenyl]-4-yl)thio)-1H-1,2,3-triazole-5-carboxylic acid 2,2,2-trifluoroacetate] the figure was less than 100 nM. The same measure for `O=C(O)c1[nH]nnc1SC1Cc2ccc(OC(F)(F)F)cc2C1` (centres unmarked) [Compound 320, 4-((5-(trifluoromethoxy)-2,3-dihydro-1H-inden-2-yl)thio)-1H-1,2,3-triazole-5-carboxylic acid]: less than 100 nM; for `O=C(O)c1[nH]nnc1Sc1ccc(-c2ccc(OC(F)(F)F)cn2)cc1` [Compound 321, 4-((4-(5-(trifluoromethoxy)pyridin-2-yl)phenyl)thio)-1H-1,2,3-triazole-5-carboxylic acid 2,2,2-trifluoroacetate]: less than 100 nM; for `O=C(O)c1[nH]nnc1CSc1ccc(-c2ccc(Cl)c(Cl)c2)cc1` [Compound 322, 4-(((3′,4′-dichloro-[1,1′-biphenyl]-4-yl)thio)methyl)-1H-1,2,3-triazole-5-carboxylic acid 2,2,2-trifluoroacetate]: less than 100 nM. The same measure for `O=C(O)c1[nH]nnc1SC1CCN(c2ccc(Cl)c(Cl)c2)CC1` [Compound 323, 4-((1-(3,4-dichlorophenyl)piperidin-4-yl)thio)-1H-1,2,3-triazole-5-carboxylic acid 2,2,2-trifluoroacetate]: less than 100 nM; for `O=C(O)c1[nH]nnc1SC1CCN(c2ccc(C(F)(F)F)cc2)CC1` [Compound 324]: less than 100 nM. For `O=C(O)c1[nH]nnc1SC1CCN(c2cc(Cl)cc(Cl)c2)CC1` [Compound 325, 4-((1-(3,5-dichlorophenyl)piperidin-4-yl)thio)-1H-1,2,3-triazole-5-carboxylic acid 2,2,2-trifluoroacetate], the concentration for half-maximal inhibition (IC50) was less than 100 nM. On to `O=C(O)c1[nH]nnc1SC1CCC(c2cccc(OC(F)(F)F)c2)CC1` (centres unmarked) [Compound 326, 4-((4-(3-(trifluoromethoxy)phenyl)cyclohexyl)thio)-1H-1,2,3-triazole-5-carboxylic acid], for which the half-inhibitory concentration (IC50) is less than 100 nM. The same measure for `O=C(O)c1[nH]nnc1SC1CCC(c2cccc(C(F)(F)F)c2)CC1` (centres unmarked) [Compound 327, 4-((4-(3-(trifluoromethyl)phenyl)cyclohexyl)thio)-1H-1,2,3-triazole-5-carboxylic acid]: less than 100 nM. With `O=C(O)c1[nH]nnc1CSc1ccc(-c2cc(Cl)cc(Cl)c2)cc1` [Compound 328, 4-(((3′,5′-dichloro-[1,1′-biphenyl]-4-yl)thio)methyl)-1H-1,2,3-triazole-5-carboxylic acid] the figure was less than 100 nM; with `O=C(O)c1[nH]nnc1CSc1ccc(-c2ccc(OC(F)(F)F)c(Cl)c2)cc1` [Compound 329, 4-(((3′-chloro-4′-(trifluoromethoxy)-[1,1′-biphenyl]-4-yl)thio)methyl)-1H-1,2,3-triazole-5-carboxylic acid], less than 100 nM; with `O=C(O)c1[nH]nnc1SC1CCN(c2cc(Cl)ccc2Cl)CC1` [Compound 330, 4-((1-(2,5-dichlorophenyl)piperidin-4-yl)thio)-1H-1,2,3-triazole-5-carboxylic acid], less than 100 nM.

As for `O=C(O)c1[nH]nnc1S[C@H]1CC[C@@H](c2cc(Cl)cc(Cl)c2)CC1` [Compound 331, 4-(((cis)-4-(3,5-dichlorophenyl)cyclohexyl)thio)-1H-1,2,3-triazole-5-carboxylic acid], the IC50 was less than 100 nM.

`O=C(O)c1[nH]nnc1S[C@H]1CC[C@@H](c2ccc(C(F)(F)F)cc2)CC1` [Compound 332, 4-(((cis)-4-(4-(trifluoromethyl)phenyl)cyclohexyl)thio)-1H-1,2,3-triazole-5-carboxylic acid]: the IC50 was less than 100 nM.

Turning to `CN(Cc1nn[nH]c1C(=O)O)c1ccc(-c2ccc(OC(F)(F)F)cc2)cc1` [Compound 333, 4-((methyl(4′-(trifluoromethoxy)-[1,1′-biphenyl]-4-yl)amino)methyl)-1H-1,2,3-triazole-5-carboxylic acid 2,2,2-trifluoroacetate], the half-inhibitory concentration (IC50) is less than 100 nM. With `O=C(O)c1[nH]nnc1-c1cc(OCC2CC2)cc(C(F)(F)F)c1` [Compound 334, 4-(3-(cyclopropylmethoxy)-5-(trifluoromethyl)phenyl)-1H-1,2,3-triazole-5-carboxylic acid] the figure was less than 100 nM; with `O=C(O)c1[nH]nnc1[S+]([O-])c1ccc(Cl)c(OCC2CCCCC2)c1` (centres unmarked) [Compound 335, 4-((4-chloro-3-(cyclohexylmethoxy)phenyl)sulfinyl)-1H-1,2,3-triazole-5-carboxylic acid], 1000 to 10000 nM; with `O=C(O)c1[nH]nnc1Sc1ccc(Cl)c(OCC2CCCCC2)c1` [Compound 336, 4-((4-chloro-3-(cyclohexylmethoxy)phenyl)thio)-1H-1,2,3-triazole-5-carboxylic acid], less than 100 nM. As to `O=C(O)c1[nH]nnc1S[C@H]1CC[C@@H](c2cc(Cl)cc(OC(F)(F)F)c2)CC1` [Compound 337, 4-(((cis)-4-(3-chloro-5-(trifluoromethoxy)phenyl)cyclohexyl)thio)-1H-1,2,3-triazole-5-carboxylic acid], the concentration for half-maximal inhibition (IC50) was less than 100 nM. The same measure for `O=C(O)c1[nH]nnc1SC1CCN(c2cc(Cl)cc(OC(F)(F)F)c2)CC1` [Compound 338, 4-((1-(3-chloro-5-(trifluoromethoxy)phenyl)piperidin-4-yl)thio)-1H-1,2,3-triazole-5-carboxylic acid]: less than 100 nM; for `O=C(O)c1[nH]nnc1Sc1ccc(N2CCC(F)(F)CC2)cc1` [Compound 339, 4-((4-(4,4-difluoropiperidin-1-yl)phenyl)thio)-1H-1,2,3-triazole-5-carboxylic acid 2,2,2-trifluoroacetate]: less than 100 nM. Regarding `O=C(O)c1[nH]nnc1SC1CCC(c2cccc(N3CCCCC3)c2)CC1` (centres unmarked) [Compound 340, 4-((4-(3-(piperidin-1-yl)phenyl)cyclohexyl)thio)-1H-1,2,3-triazole-5-carboxylic acid 2,2,2-trifluoroacetate], the IC50 was less than 100 nM. The same measure for `CN1CCN(c2ccc([C@H]3CC[C@@H](Sc4nn[nH]c4C(=O)O)CC3)cc2)CC1` [Compound 341, 4-(((cis)4-(4-(4-methylpiperazin-1-yl)phenyl)cyclohexyl)thio)-1H-1,2,3-triazole-5-carboxylic acid 2,2,2-trifluoroacetate]: less than 100 nM. Regarding `O=C(O)c1[nH]nnc1Sc1ccc(-c2ccc(N3CCCCC3)cc2)c(Cl)c1` [Compound 342, 4-((2-chloro-4′-(piperidin-1-yl)-[1,1′-biphenyl]-4-yl)thio)-1H-1,2,3-triazole-5-carboxylic acid 2,2,2-trifluoroacetate], the half-maximal inhibitory concentration (IC50) is less than 100 nM.

As to `O=C(O)c1[nH]nnc1Sc1cc(OCC2CCCC2)ccc1Cl` [Compound 343, 4-((2-chloro-5-(cyclopentylmethoxy)phenyl)thio)-1H-1,2,3-triazole-5-carboxylic acid], the 50% inhibitory concentration (IC50) was less than 100 nM.
